This assay deals with codeine addiction. Kind of assay: Blind trial, rubidium chloride to treat codeine addiction. The assay is classed as in vivo, human. As to the method:
The trial below was a blind trial with 300 mg of rubidium chloride taken once per day administered in a glass of water in the morning by a person of 90 kg; and a placebo being taken by a person of 66 kg, both of whom were addicted to codeine
The trial was undertaken with the recommendation by doctors not to proceed too quickly and to eat potassium rich foods, especially at night; The most difficult aspect was to stop the craving in the evening—a solution for people who cannot stop the craving at night would be to split the dosage of the 300 mg of Rubidium Chloride and take half in the morning and half late in the afternoon.
The aim of this trial was to stop the craving for codeine with the aid of the compound and use the enhanced energy and stimulation supplied from the compound that was tested to change addiction habits.
The trial was for 300 mg of Rubidium Chloride taken once per day taken in a glass of water in the morning in this blind study and a placebo of powdered sugar taken once per day taken in a glass of water in the morning.

The mark [1] stands for this setting: 90 kg male, 300 mg once per day, self-report.

The values below come from patent publication US20180064755A1, “COMPOSITIONS AND METHODS FOR TREATING DRUG ADDICTION” (priority 2015, published 2018).

Regarding `[Cl-].[Rb+]` [rubidium chloride], the craving for codeine result (90 kg male addicted to codeine, 300 mg once per day in a glass of water in the morning, self-report) was “less craving for the drug than normal even after the first day”. Besides, under setting [1], the “energy and activity during the day” value is on record as “much more energy than before”; the “stimulation from the medication” value is “very, very strong”. Also, the “outcome of codeine addiction” value (90 kg male, 300 mg once per day, two month trial) is “lost the addiction to codeine”.
